One data set has as its system Kidney. The data set is described as follows: Release of H2S in mouse kidney homogenate at 10 to 300 uM measured for 10 mins by methylene blue formation assay. It counts as ADME, tissue-based. The conditions noted are these: tissue homogenate, dose 10-300 µM.
In data set [1] the test system is Mus musculus. As to the kind of experiment: Antipruritic effect in mouse assessed as reduction in histamine-induced itching duration at 15 mg/kg ip pretreated 30 mins before histamine and recorded for 10 mins. The format is functional, organism-based.
For data set [2], the system named is Mus musculus. The data set is described as follows: Antipruritic effect in mouse assessed as reduction in PAR-2-induced itching duration at 15 mg/kg ip pretreated 30 mins before histamine and recorded for 10 mins. The format is functional, organism-based.
The test system of the next data set is HUVE. The data set is described as follows: (§1) Antihistamine effect in HUVEC cells assessed as inhibition of histamine-induced tissue factor expression pretreated 30 mins before addition of his measured after 2 hrs after addition of TRIzol by spectrophotometry. It counts as functional, cell-based. Conditions: Homo sapiens.
The nature of data set [3]: as §1. The format is functional, cell-based. Conditions: Homo sapiens, HUVE.
Data set [4] is described as follows: Drug metabolism in mouse assessed as fold increase in plasma HDZ at 50 mg/kg, ip by LC-MS/MS analysis. The format is ADME, organism-based. Conditions: in vivo.
Data set [5] can be described thus: Toxicity in mouse assessed as sedative effect by measuring reduction in locomotion at 70 mg/kg ip. Conditions: in vivo. The format is organism-based.
Data set [6] can be described thus: Toxicity in histamine-induced mouse itching mouse model assessed as reduction in locomotion at 15 mg/kg ip. Conditions: in vivo. The format is organism-based.
Data set [7] deals with Mus musculus. As to the kind of experiment: Antihistamine effect in mouse assessed as Inhibition of histamine-induced increase vascular leakage in skin tissue at 15 mg/kg, ip pretreated 30 mins before Evans blue injection followed by injected with histamine mouse euthanized and skin excised by Miles assay. It counts as functional, organism-based.
Data set [8] is described as follows: Toxicity in histamine-induced mouse itching mouse model assessed as reduction in locomotion at 60 to 120 mg/kg ip. Conditions: in vivo, dose 60-120 mg/kg. It counts as organism-based.
Data set [9] is described as follows: Plasma concentration in mouse at 1 mg/kg, ip measured after 30 mins by LC-MS/MS analysis. The format is ADME, organism-based.
In data set [10] the test system is Mus musculus. As to the kind of experiment: Antipruritic effect in mouse assessed as reduction in histamine-induced itching duration at 60 to 120 mg/kg ip pretreated 30 mins before histamine and recorded for 10 mins. It counts as functional. The conditions noted are these: dose 60-120 mg/kg, 0.5 h.
In a further data set the test system is HepG2. The data set is described as follows: Release of H2S in human HepG2 cells measured for 24 hrs by lead acetate method. The format is ADME, cell-based. Conditions: hepg2, 24 h, dose 0.5-3 mM.
Data set [11] relates to Mus musculus. As to the kind of experiment: Antipruritic effect in mouse assessed as reduction in histamine-induced itching duration at 1 mg/kg ip pretreated 30 mins before histamine and recorded for 10 mins. The format is functional, organism-based.
In data set [12] the test system is Mus musculus. As to the kind of experiment: Antipruritic effect in mouse assessed as reduction in histamine-induced itching duration at 5 mg/kg ip pretreated 30 mins before histamine and recorded for 10 mins. It counts as functional, organism-based.
The nature of data set [13]: Toxicity in mouse assessed as sedative effect by measuring reduction in locomotion at 50 mg/kg ip. It counts as organism-based. The conditions noted are these: in vivo.
Data set [14] deals with Mus musculus. The data set is described as follows: Antihistamine effect in mouse assessed as Inhibition of histamine-induced increase vascular leakage in skin tissue at 1 mg/kg, ip pretreated 30 mins before Evans blue injection followed by injected with histamine mouse euthanized and skin excised by Miles assay. The format is functional, organism-based.
The subject of data set [15] is Mus musculus. As to the kind of experiment: Antipruritic effect in mouse assessed as reduction in PAR-2-induced itching duration at 1 mg/kg ip pretreated 30 mins before histamine and recorded for 10 mins. It counts as functional, organism-based.
Data set [16] can be described thus: Plasma concentration in mouse at 10 mg/kg, ip measured after 30 mins by LC-MS/MS analysis.
Data set [17] relates to Mus musculus. As to the kind of experiment: Antipruritic effect in mouse assessed as reduction in PAR-2-induced itching duration at 10 mg/kg ip pretreated 30 mins before histamine and recorded for 10 mins. The format is functional, organism-based.
Data set [18] relates to Mus musculus. The data set is described as follows: Antipruritic effect in mouse assessed as reduction in histamine-induced itching duration at 10 mg/kg ip pretreated 30 mins before histamine and recorded for 10 mins. The format is functional, organism-based.
Data set [19] deals with Mus musculus. The data set is described as follows: Antipruritic effect in mouse assessed as reduction in histamine-induced itching duration at 30 mg/kg ip pretreated 30 mins before histamine and recorded for 10 mins. The format is functional, organism-based.
For data set [20], the system named is Mus musculus. As to the kind of experiment: Antihistamine effect in mouse assessed as Inhibition of histamine-induced increase vascular leakage in skin tissue at 10 mg/kg, ip pretreated 30 mins before Evans blue injection followed by injected with histamine mouse euthanized and skin excised by Miles assay. The format is functional, organism-based.
The test system of data set [21] is Mus musculus. The data set is described as follows: Antipruritic effect in mouse assessed as reduction in histamine-induced itching duration at 20 mg/kg ip pretreated 30 mins before histamine and recorded for 10 mins. The format is functional, organism-based.
Data set [22] relates to Mus musculus. As to the kind of experiment: Antihistamine effect in mouse assessed as Inhibition of histamine-induced increase vascular leakage in skin tissue at 50 mg/kg, ip pretreated 30 mins before Evans blue injection followed by injected with histamine mouse euthanized and skin excised by Miles assay. It counts as functional, organism-based.
A short description of data set [23]: Drug metabolism in mouse assessed as fold increase in plasma CET at 50 mg/kg, ip by LC-MS/MS analysis. It counts as ADME, organism-based. The conditions noted are these: in vivo.
For data set [24], the system named is Mus musculus. As to the kind of experiment: Antipruritic effect in mouse assessed as reduction in histamine-induced itching duration at 50 mg/kg ip pretreated 30 mins before histamine and recorded for 10 mins relative to CET. The format is functional, organism-based.
In data set [25] the test system is Mus musculus. The data set is described as follows: Antipruritic effect in mouse assessed as reduction in PAR-2-induced itching duration at 50 mg/kg ip pretreated 30 mins before histamine and recorded for 10 mins. The format is functional, organism-based.
Data set [26] has as its system Mus musculus. The data set is described as follows: Antipruritic effect in mouse assessed as reduction in histamine-induced itching duration at 3.5 mg/kg ip pretreated 30 mins before histamine and recorded for 10 mins relative to HDZ. The format is functional, organism-based.

Active and inactive are the calls of the source. No cut-off for these calls is given here.

As usually defined, the IC50 is the point on the concentration scale where inhibition reaches its midpoint.

As for `CCOCCn1c(C2CCN(CCc3ccc(C(C)(C)C(=O)Oc4ccc(C(N)=S)cc4)cc3)CC2)nc2ccccc21`, the Drug metabolism entry with Kidney is on record as “Dose-Dependent Effect”.
Consider `NC(=S)c1ccc(OC(=O)CCC(=O)OCCOCCN2CCN(C(c3ccccc3)c3ccc(Cl)cc3)CC2)cc1` (stereo unspecified), for which the Drug metabolism entry in the data set with Kidney is listed as “Dose-Dependent Effect”. Moreover, the inhibition result with Mus musculus [1], in the data set with Mus musculus [2] and with Mus musculus [7] was “Active” in each case. Besides, in the data set on HUVE, the inhibition entry is “Dose-Dependent Effect”. Moreover, the IC50 in data set [3] was 599 nM. The “fold change (FC)” value in data set [4] is given as 15. Also, the figures for the Activity entry in data set [5], in [6] and in data set [8] were “Non-Toxic”, “Non-Toxic” and “Toxic”, respectively. Moreover, in data set [9], the concentration at 0.5 h stood at 36.1 ng/mL. For the same compound, the “inhibition (INH)” value in the data set on Mus musculus [10] is reported as 100%.
With `O=C(CCC(=O)Oc1ccc(-c2cc(=S)ss2)cc1)OCCOCCN1CCN(C(c2ccccc2)c2ccc(Cl)cc2)CC1` (racemic), the Drug metabolism entry with Kidney and in the data set with HepG2 was “Dose-Dependent Effect” each time. Further, the inhibition entry in the data set on HUVE is “Dose-Dependent Effect”. Moreover, the IC50 in data set [3] worked out at 5.5 nM.
For `C[C@H]1CN(C2CCC(C#N)(c3ccc(F)cc3)CC2)CC[C@@]1(C(=O)Oc1ccc(C(N)=S)cc1)c1ccccc1` (stereo partly specified), the Drug metabolism entry in the data set on Kidney is recorded as “Dose-Dependent Effect”.
Turning to `OCCOCCN1CCN(C(c2ccccc2)c2ccc(Cl)cc2)CC1` (stereo unspecified) [HYDROXYZINE], the result in the data set with Mus musculus [11] and in the data set on Mus musculus [12] was Active. In addition, the inhibition entry with HUVE is “Dose-Dependent Effect”. Also, the IC50 in [3] turned out to be 4.87 nM. For the same compound, the Activity entry in data set [13] is “Toxic”. Besides, the inhibition result in the data set on Mus musculus [14] and in the data set on Mus musculus [15] was “Active” throughout.
Turning to `O=C(COCCN1CCN(C(c2ccccc2)c2ccc(Cl)cc2)CC1)OCCCCCCOc1ccc(-c2cc(=S)ss2)cc1` (racemic), the Drug metabolism entry in the data set on Kidney is recorded as “Dose-Dependent Effect”.
As to `O=C(O)COCCN1CCN(C(c2ccccc2)c2ccc(Cl)cc2)CC1` (stereo unspecified) [CETIRIZINE], the concentration at 0.5 h in data set [16] came to 8460 ng/mL. Besides, the inhibition entry in the data set on Mus musculus [17] and in the data set with Mus musculus [20] was “Active” each time. The inhibition entry in the data set with HUVE is “Dose-Dependent Effect”. Moreover, in data set [3], the IC50 is 169 nM. Moreover, the Activity result in data set [5] is “Toxic”. For the same compound, the result in the data set with Mus musculus [18] and in the data set on Mus musculus [19] was Active.
Turning to `NC(=S)c1ccc(OCCCCCCOC(=O)COCCN2CCN(C(c3ccccc3)c3ccc(Cl)cc3)CC2)cc1` (racemic), the Drug metabolism result with Kidney is “Dose-Dependent Effect”. Also, in the data set with HUVE, the inhibition entry was “Dose-Dependent Effect”. In addition, the IC50 in data set [3] was determined as 7.9 nM.
As to `CCOCCn1c(C2CCN(CCc3ccc(C(C)(C)C(=O)Oc4ccc(-c5cc(=S)ss5)cc4)cc3)CC2)nc2ccccc21`, the Drug metabolism result in the data set on Kidney and with HepG2 was “Dose-Dependent Effect” throughout.
`Oc1ccc(-c2cc(=S)ss2)cc1`: the inhibition entry with Mus musculus [21] is “Active”.
As to `C[C@H]1CN(C2CCC(C#N)(c3ccc(F)cc3)CC2)CC[C@@]1(C(=O)Oc1ccc(-c2cc(=S)ss2)cc1)c1ccccc1` (stereo partly specified), the Drug metabolism result in the data set on Kidney and in the data set with HepG2 was “Dose-Dependent Effect” in each case.
For `O=C(COCCN1CCN(C(c2ccccc2)c2ccc(Cl)cc2)CC1)OCCOc1ccc(-c2cc(=S)ss2)cc1` (racemic), the Drug metabolism entry in the data set with Kidney and with HepG2 was “Dose-Dependent Effect” in each case. Moreover, the inhibition entry in the data set on Mus musculus [22], with Mus musculus [24] and in the data set with Mus musculus [25] was “Active” each time. Further, the inhibition result with HUVE is “Dose-Dependent Effect”. Besides, the IC50 in data set [3] was determined as 812 nM. The “fold change (FC)” value in data set [23] turned out to be 3.
Take `NC(=S)c1ccccc1`: the inhibition entry with Mus musculus [26] was “Active”.

Values taken from ChEMBL document CHEMBL5346951, “Novel H2S-Releasing Bifunctional Antihistamine Molecules with Improved Antipruritic and Reduced Sedative Actions” (J Med Chem, 2023).
